Assays:
[1] = target: T1, human vanilloid receptor-like receptor (VR-L) (Homo sapiens, UniProt Q9Y5S1); assay: Xenopus oocyte expression, two-electrode voltage clamp at -70 mV; type: cell-based; conditions: 1 μM capsaicin in the perfusate; Xenopus oocytes expressing human vr-l cDNA
T1 sequence (Q9Y5S1 1-764): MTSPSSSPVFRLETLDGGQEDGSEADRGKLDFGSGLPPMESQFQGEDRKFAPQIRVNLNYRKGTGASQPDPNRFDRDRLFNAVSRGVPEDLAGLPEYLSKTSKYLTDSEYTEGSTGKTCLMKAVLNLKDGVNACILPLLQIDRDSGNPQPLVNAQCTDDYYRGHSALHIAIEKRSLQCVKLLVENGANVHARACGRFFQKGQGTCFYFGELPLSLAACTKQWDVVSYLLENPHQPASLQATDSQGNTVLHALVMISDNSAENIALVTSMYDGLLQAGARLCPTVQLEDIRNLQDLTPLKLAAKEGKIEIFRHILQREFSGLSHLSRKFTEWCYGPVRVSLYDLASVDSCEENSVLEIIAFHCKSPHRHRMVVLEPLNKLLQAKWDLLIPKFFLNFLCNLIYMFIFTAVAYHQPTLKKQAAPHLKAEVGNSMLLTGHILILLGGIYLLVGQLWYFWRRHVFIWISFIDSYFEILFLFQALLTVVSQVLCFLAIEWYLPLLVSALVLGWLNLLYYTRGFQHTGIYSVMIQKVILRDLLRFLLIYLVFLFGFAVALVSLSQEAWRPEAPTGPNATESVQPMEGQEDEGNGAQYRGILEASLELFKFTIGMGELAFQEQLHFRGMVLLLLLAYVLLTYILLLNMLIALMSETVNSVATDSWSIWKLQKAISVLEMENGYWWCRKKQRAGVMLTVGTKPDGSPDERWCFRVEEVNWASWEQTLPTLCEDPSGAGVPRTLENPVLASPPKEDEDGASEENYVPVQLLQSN
Procedure: Adult female Xenopus laevis were anaesthetized by immersion in a 0.4% solution of 3-aminobenzoic acid ethylester for 30–45 mins (or until unresponsive). Ovary tissue was removed via a small abdominal incision and Stage V and VI oocytes were isolated with fine forceps. After mild collagenase treatment to remove follicle cells (Type 1A, 0.5 mg mL^−1, for 8 mins), the oocyte nuclei were directly injected with 10–20 nl of injection buffer (88 mM NaCl, 1 mM KCl, 15 mM HEPES, at pH 7, filtered through nitrocellulose) or sterile water containing vr-l cDNA engineered into the expression vector pcDNA3.1Zeo. Following incubation for 48 hrs, oocytes were placed in a 50 μL bath and perfused at 4–6 mL min^−1 with modified Barth's medium (MBS) consisting of 88 mM NaCl, 1 mM KCl, 10 mM HEPES, 0.82 mM MgSO4, 0.33 mM Ca(NO3)2, 0.91 mM CaCl2, 2.4 mM NaHCO3, at pH 7.5. Cells were impaled with two 1–3 MΩ electrodes containing 2 M KCl and voltage clamped between at −70 mV. Drugs were applied in the perfusate and heat was applied by bath applying preheated MBS.

[2] = target: T1, human vanilloid receptor-like receptor (VR-L); assay: Whole-cell patch clamp of HEK 293 cells transiently transfected with vr-l cDNA; type: cell-based; parameters: identified as together containing the entire coding region of the VR-L gene; expressed in transfected cells; host or cells: HEK 293 cells, transient transfection; conditions: 1 μM capsaicin by fast perfusion; HEK 293 cells expressing human vr-l cDNA, -60 mV
Text: A glass coverslip containing a monolayer of human embryonic kidney (HEK) 293 cells transiently transfected with the vr-l cDNA was placed in a perspex chamber mounted on the stage of a Nikon Diaphot inverted phase-contrast microscope and continuously perfused with calcium-free artificial cerebrospinal fluid (aCSF, see below). Fire-polished patch pipettes were pulled on program 10 of a WZ, DMZ-Universal puller using conventional 120TF-10 electrode-glass. Pipette tip diameter was generally 1.5–2.5 μM, resistances were approximately 4MΩ. The intracellular pipette solution used is detailed below. High resistance (>10 GΩ) seals were formed by advancing the pipette onto the cell and exerting gentle suction to break through the membrane. The cells were voltage-clamped at −60 mV, using an Axon Axopatch 2 amplifier. Drugs or heated aCSF were applied to the cell under study by fast perfusion using a large internal diameter (50–100 μM) triple-barrel pipette assembly. Drug responses were obtained by rapidly positioning the perfusion pipette to completely envelop the cell in drug solution. This was achieved via a Biologic rapid solution changer which pivots the barrels into the desired position. Fast washout was obtained by re-positioning the washout barrel in line with the cell. [table] [table]

## COc1cc(CNC(=O)CCCC/C=C/C(C)C)ccc1O [capsaicin]
[1]
  response (inward current) to application of drug: No responses
[2]
  response (inward current) to application of drug: No responses

— US7179898B1, “Human vanilloid receptor-like receptor” (Merck & Co., Inc., priority 1998, dated 2007)
